From patent US8992960B2, “Multifunctional silica-based compositions and gels, methods of making them, and methods of using them” (University of Florida Research Foundation, Inc., priority 2010, dated 2015)

Assay: Reactivity of DMDS towards Cu(II) ions (odor over time)
Assay type: physicochemical
Conditions: in CuSiNG; preliminary results, characteristic odor over time
Method: Unlike SiNG, the physico-chemical environment of DMDS in CuSiNG is expected to be somewhat different due to presence of Cu (II) ions. […] However, the DMDS electron-rich sulfur atom has the ability to weakly interact with electron-deficient Cu(II) ion. This could further facilitate adsorption of DMDS into CuSiNG. Thorough FT-IR studies are performed to understand the nature of intermolecular interactions that exist between DMDS and SiNG. In addition, thermogravimetric analysis (TGA), calorimetry and QCM sensing studies to obtain DMDS loading/release characteristics (isotherms) against CuSiNG and SiNG materials will be used to determine the role of Cu II ions in DMDS loading. A comparative isotherm data analysis along with FT-IR analysis will reveal the effect of Cu in DMDS loading/release process.

SMILES: CSSC [DMDS, dimethyl disulfide]
- reactivity to Cu(II) ions: non-reactive to Cu(II) ions
